For 27 molecules, EC50 results are on record in patent publication US11161819B2, “Substituted tetrahydroisoquinoline compounds useful as GPR120 agonists” (Merck Sharp & Dohme Corp., priority 2016, dated 2021).

As usually defined, the pEC50 is −log10 of the EC50, conventionally taken in molar units.

This assay deals with T1, human GPR120 (Homo sapiens, UniProt Q5NUL3).
T1 construct: expressed in transfected cells
T1 sequence (Q5NUL3 1-361): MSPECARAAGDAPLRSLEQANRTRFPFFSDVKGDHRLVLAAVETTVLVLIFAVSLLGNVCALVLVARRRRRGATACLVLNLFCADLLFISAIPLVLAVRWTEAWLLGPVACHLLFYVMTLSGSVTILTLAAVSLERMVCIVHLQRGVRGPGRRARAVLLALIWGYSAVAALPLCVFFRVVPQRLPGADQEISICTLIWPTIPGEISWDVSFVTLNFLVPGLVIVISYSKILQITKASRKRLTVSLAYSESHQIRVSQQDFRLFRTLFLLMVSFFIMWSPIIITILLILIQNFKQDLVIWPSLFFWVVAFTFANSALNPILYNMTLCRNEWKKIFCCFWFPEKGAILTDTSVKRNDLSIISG
The assay is described as follows: Human GPR120 IP1 Assay (inositol phosphate turnover, CisBio IP-One kit). It counts as cell-based. Particulars: IP1 accumulation in CHO-K1 cells stably expressing the short form of human GPR120; 60 min compound incubation; 4-parameter fit; read-out: hGPR120 EC50. The source says:
Human GPR120 IP1 Assay Principle
The binding of small molecule agonists to the G-protein-coupled receptor GPR120 activates phospholipase C, and leads to the generation of inositol 1,4,5-trisphosphate (InsP3 or IP3). IP3 is subsequently de-phosphorylated to IP1, which accumulates in cells and is stable in the presence of lithium chloride.
In the present method, agonist-induced activation of the human GPR120 receptor was monitored by measuring the accumulation of IP1 in CHO-K1 cells that were stably expressing the short form of human GPR120 (Accession #NM_001195755). Following agonist addition, GPR120 activation and subsequent accumulation of IP1 was measured using a homogeneous Time Resolved Fluorescence-based ELISA commercially available from CisBio (IP-one ELISA Kit). The IP-One ELISA was a competitive immunoassay which uses IP1 labeled with […] and a terbium cryptate-labeled anti-IP1 monoclonal antibody. […] The signal loss was then back calculated to IP1 concentration using an IP1 standard curve. Determination of IP1 concentration was a direct measure of GPR120 activation and was used to determine compound potency (EC50).
Generation of GPR120-Expressing Cells:
Human GPR120 stable cell-lines were generated in CHO cells. The expression plasmids were transfected using lipofectamine (Life Technologies) following manufacturer's instructions. Stable cell-lines were generated following drug selection and single cell cloning.
Inositol Phosphate Turnover (IP1) Assay:
The assay was performed in 384-well format. CHO cells stably expressing human GPR120 were plated at […] per well in growth medium (DMEM/F12, 10% fetal calf serum). Cell plates were then incubated 16 hours at 37 degrees in a 5% CO2 incubator. Measurement of Inositol Phosphate Turnover (IP1) was performed using the CisBio IP-One kit (Part number 62IPAPEB). After the 16 hour incubation, the growth media was removed by centrifugation using the BlueWasher (AusWasher GUI Ver. v1.0.1.8) Protocol #21-“Light Dry” and 10 ul of stimulation buffer (prepared as described in the kit) was added to each well. In a separate plate, compounds were diluted in DMSO (200-fold over the final concentration in the assay well) and 50 nl was acoustically transferred to the appropriate well in the assay cell plate. The plates were then incubated for 60 minutes at 37 degrees in a 5% CO2 incubator. 10 ul of detection buffer (also prepared as described in the IP-One kit) was added to each well and the plates were incubated at room temperature for 60 minutes in the dark. The plates were then read in a Perkin Elmer EnVision or equivalent reader able to measure FRET. Fluorescent ratio of emission at 665 and 620 nm was then converted to the IP1 concentration by back calculating from an IP1 standard curve prepared at the time of the assay. The data was normalized to % activity using a reference compound, and the EC50 values were determined using a standard 4-parameter fit.

pEC50: −log10 of the molar value.

For `O=C(O)CCc1ccc2c(c1)CCN(c1cc(SC3CCC3)ncc1F)C2` [Example 26, 3-{2-[2-(cyclobutylsulfanyl)-5-fluoropyridin-4-yl]-1,2,3,4-tetrahydro-isoquinolin-6-yl}propanoic acid], the negative-log EC50 (pEC50) was 7.01.

Consider `O=C(O)CCc1ccc2c(c1)CCN(c1cc(OC(F)(F)F)ccc1F)C2` [Example 27, 3-{2-[2-fluoro-5-(trifluoro-methoxy)phenyl]-1,2,3,4-tetrahydro-isoquinolin-6-yl}propanoic acid], for which the pEC50 was 7.21.

Take `COc1cc(F)c(N2CCc3cc(CCC(=O)O)ccc3C2)cc1Oc1ccc(C)cn1` [Example 28, 3-(2-{2-fluoro-4-methoxy-5-[(5-methylpyridin-2-yl)oxy]phenyl}-1,2,3,4-tetrahydroisoquinolin-6-yl)propanoic acid]: the negative-log EC50 (pEC50) is 6.77.

`O=C(O)CCc1ccc2c(c1)CCN(c1cc3c(C(F)(F)F)noc3cc1F)C2` [Example 29, 3-{2-[6-fluoro-3-(trifluoromethyl)-1,2-benzisoxazol-5-yl]-1,2,3,4-tetrahydroisoquinolin-6-yl}-propanoic acid]: the pEC50 is 6.77.

Regarding `O=C(O)CCc1cc2c(cc1F)CN(c1cc(OC(F)(F)F)ccc1F)CC2` [Example 30, 3-{7-fluoro-2-[2-fluoro-5-(trifluoromethoxy)phenyl]-1,2,3,4-tetrahydroisoquinolin-6-yl}-propanoic acid], the pEC50 was 6.87.

Turning to `COc1cc(F)c(N2CCc3cc(CCC(=O)O)ccc3C2)cc1OC1CCC1` [Example 31, 3-{2-[5-(cyclobutyloxy)-2-fluoro-4-methoxyphenyl]-1,2,3,4-tetrahydroisoquinolin-6-yl}-propanoic acid], the pEC50 is 6.74.

For `CC1c2ccc(CCC(=O)O)cc2CCN1c1cc(OC2CCC2)cc(F)c1F` (stereo not drawn) [Example 32, 3-{2-[5-(cyclobutyloxy)-2,3-difluorophenyl]-1-methyl-1,2,3,4-tetrahydroisoquinolin-6-yl}-propanoic acid], the negative logarithm of the EC50 (pEC50) is 6.63.

As for `O=C(O)CCc1ccc2c(c1)CCN(c1cc(Oc3cnccn3)ccc1F)C2` [Example 33, 3-{2-[2-fluoro-5-(pyrazin-2-yloxy)phenyl]-1,2,3,4-tetrahydroiso-quinolin-6-yl}propanoic acid], the pEC50 is 6.72.

As to `CO[C@H]1C[C@H](Oc2cc(C#N)c(F)c(N3CCc4cc(CCC(=O)O)ccc4C3)c2)C1` [Example 34, 3-(2-{3-cyano-2-fluoro-5-[(trans-3-methoxycyclobutyl)oxy]phenyl}-1,2,3,4-tetrahydroisoquinolin-6-yl)propanoic acid], the pEC50 is 6.74.

In the case of `O=C(O)CCc1ccc2c(c1)CCN(c1cc(Oc3ccc(F)cn3)cc(C(F)F)c1F)C2` [Example 35, 3-(2-{3-(difluoromethyl)-2-fluoro-5-[(5-fluoropyridin-2-yl)oxy]phenyl}-1,2,3,4-tetrahydroisoquinolin-6-yl) propanoic acid], the negative logarithm of the EC50 (pEC50) is 6.51.

Regarding `CC1c2ccc(CCC(=O)O)cc2CCN1c1cc(OC2CCC2)ccc1F` (stereo not drawn) [Example 36, 3-{2-[5-(cyclobutyloxy)-2-fluorophenyl]-1-methyl-1,2,3,4-tetrahydroisoquinolin-6-yl}propanoic acid], the pEC50 is 6.46.

As for `CC1c2ccc(CCC(=O)O)cc2CCN1c1cc(OC2CCC2)cc(F)c1Cl` (stereo not drawn) [Example 37, 3-{2-[2-chloro-5-(cyclobutyloxy)-3-fluorophenyl]-1-methyl-1,2,3,4-tetrahydroisoquinolin-6-yl}-propanoic acid], the negative-log EC50 (pEC50) was 6.42.

Consider `O=C(O)CCc1ccc2c(c1)CCN(c1cccc(SC3CCC3)n1)C2` [Example 38, 3-{2-[6-(cyclobutylsulfanyl)pyridin-2-yl]-1,2,3,4-tetrahydroiso-quinolin-6-yl}propanoic acid], for which the negative logarithm of the EC50 (pEC50) is 6.39.

Regarding `CC1c2ccc(CCC(=O)O)cc2CCN1c1cc(OC2CCC2)ccc1F` (stereo not drawn) [Example 39, 3-{2-[5-(cyclobutyloxy)-2-fluorophenyl]-1-methyl-1,2,3,4-tetra-hydroisoquinolin-6-yl}propanoic acid], the pEC50 was 6.38.

With `O=C(O)CCc1ccc2c(c1)CCN(c1cc(Cl)c(C(F)(F)F)c(Cl)c1)C2` [Example 40, 3-{2-[3,5-dichloro-4-(trifluoro-methyl)phenyl]-1,2,3,4-tetrahydro-isoquinolin-6-yl}propanoic acid], the negative-log EC50 (pEC50) is 6.33.

`O=C(O)CCc1ccc2c(c1)CCN(c1cncc(OC3CCC3)n1)C2` [Example 41, 3-{2-[6-(cyclobutyloxy)pyrazin-2-yl]-1,2,3,4-tetrahydroiso-quinolin-6-yl}propanoic acid]: the pEC50 is 6.24.

For `COc1cc(C#N)c(N2CCc3cc(CCC(=O)O)ccc3C2)cc1OC1CCC1` [Example 42, 3-{2-[2-cyano-5-(cyclobutyloxy)-4-methoxyphenyl]-1,2,3,4-tetra-hydroisoquinolin-6-yl}propanoic acid], the negative-log EC50 (pEC50) was 6.10.

With `COc1ccc(-n2nc(C)c(C#N)c2N2CCc3cc(CCC(=O)O)ccc3C2)cc1` [Example 43, 3-{2-[4-cyano-1-(4-methoxy-phenyl)-3-methyl-1H-pyrazol-5-yl]-1,2,3,4-tetrahydroisoquinolin-6-yl}propanoic acid], the pEC50 is 5.83.

For `N#Cc1c(F)cc(OC(F)(F)F)cc1N1CCc2cc(CCC(=O)O)ccc2C1` [Example 44, 3-{2-[2-cyano-3-fluoro-5-(trifluoro-methoxy)phenyl]-1,2,3,4-tetra-hydroisoquinolin-6-yl}propanoic acid], the pEC50 was 5.63.

Take `O=C(O)CCc1ccc2c(c1)CCN(c1cc(OC3CCC3)cc(F)c1Cl)C2` [Example 45, 3-{2-[2-chloro-5-(cyclobutyloxy)-3-fluorophenyl]-1,2,3,4-tetrahydro-isoquinolin-6-yl}propanoic acid]: the negative-log EC50 (pEC50) is 5.64.

On to `Cc1ccc(-n2nc(C)c(F)c2N2CCc3cc(CCC(=O)O)ccc3C2)cc1` [Example 47, 3-{2-[4-fluoro-3-methyl-1-(4-methylphenyl)-1H-pyrazol-5-yl]-1,2,3,4-tetrahydroisoquinolin-6-yl} propanoic acid], for which the pEC50 was 7.04.

As for `CO[C@H]1C[C@H](Oc2ccc(C#N)c(N3CCc4cc(CCC(=O)O)ccc4C3)c2)C1` [Example 48, 3-(2-{2-cyano-5-[(trans-3-methoxy-cyclobutyl)oxy]phenyl}-1,2,3,4-tetrahydroisoquinolin-6-yl)-propanoic acid], the pEC50 was 6.22.

Consider `CC1c2ccc(CCC(=O)O)cc2CCN1c1cc(OC2CCC2)cc(F)c1F` (stereo not drawn) [Example 49, 3-{2-[5-(cyclobutyloxy)-2,3-difluorophenyl]-1-methyl-1,2,3,4-tetrahydroisoquinolin-6-yl}-propanoic acid], for which the pEC50 was 6.65.

In the case of `O=C(O)CCc1ccc2c(c1)CCN(Cc1c(-c3ccc(Cl)cc3)nsc1C(F)(F)F)C2` [Example 50, 3-(2-{[3-(4-chlorophenyl)-5-(trifluoromethyl)isothiazol-4-yl]methyl}-1,2,3,4-tetrahydroiso-quinolin-6-yl)propanoic acid], the pEC50 is 6.46.

As for `O=C(O)CCc1cc(F)c2c(c1)CCN(c1cc(OC(F)(F)F)ccc1F)C2` [Example 51, 3-{8-fluoro-2-[2-fluoro-5-(trifluoromethoxy)phenyl]-1,2,3,4-tetrahydroisoquinolin-6-yl}-propanoic acid], the negative logarithm of the EC50 (pEC50) is 6.50.

In the case of `CC(Cc1ccc2c(c1)CCN(c1cc(OC(F)(F)F)ccc1F)C2)C(=O)O` (stereo not drawn) [Example 52], the pEC50 was 6.29.

In the case of `O=C(O)CCc1ccc2c(c1)CCN(c1cc(OC3CCC3)cc(Cl)c1F)C2` [Example 54, 3-{2-[3-chloro-5-(cyclobutyloxy)-2-fluorophenyl]-1,2,3,4-tetrahydro-isoquinolin-6-yl}propanoic acid], the negative logarithm of the EC50 (pEC50) was 5.77.
